Read-outs that look alike come from different tables or passages of the source.
Legend:
[1] = biological target: Bcl-xL (residues 1-209, loop 45-86 deleted) (Homo sapiens (Human), UniProt Q07817, DEL45-86); test: Bak peptide binding assay, fluorescence polarization anisotropy competition (FITC-Bak), Bcl-xL selectivity; conditions: Table 4; FITC-Bak peptide 10 nM, Bcl-xL 4 nM
Method: (§1) Bak Peptide Binding Assay
(§2) Compound affinity was measured using a fluorescence polarization anisotropy competition assay. Anisotropy measurements were carried out in 384-well, black, flat-bottom plates (Greiner Bio-one, Monroe, N.C., USA). The assay was run using a fluorescein isothiocyanate-labeled BH3 peptide derived from Bak (FITC-AHx-[…]-NH2) that was purchased from GenScript (Piscataway, N.J.) at >95% purity and used without further purification. 10 nM FITC-Bak peptide and 14 nM recombinant Mcl-1 (residues 172-327) were added to assay buffer (3 mM dithiothreitol, 50 mM NaCl, 20 mM Tris, pH 7.5). For selectivity assays, 40 nM Bcl-2 (residues 1-207^A96T,G110R, Δ35-91, replaced with Bcl-xL35-50) or 4 nM Bcl-xL (residues 1-209, loop 45-86 deleted) were incubated with 10 nM FITC-Bak in assay buffer.
(§3) Compounds are diluted in DMSO in a 10-point, 3-fold serial dilution scheme. 2.5 uL compound is added to 47.5 uL of assay buffer containing FITC-Bak and protein, for a final DMSO concentration of 5% and a top concentration of 20 uM. […] The plate was mixed and incubated for 90 minutes at room temperature. Anisotropy is measured at excitation wavelength 480 nm and emission wavelength 535 nm using an EnVision Multi-label plate reader (PerkinElmer, Wellesley, Mass., USA). Fluorescence anisotropy is plotted against compound concentration to generate an IC50 (inhibitor concentration at which 50% of bound peptide is displaced) by fitting the data to a 4-parameter logistic model using XLFit software (Guildford, Surrey, UK). IC50 is converted to a binding dissociation constant (Ki value) according to the formula of Wang Z. FEBS Lett (1996) 3, 245: Ki=[I]50/([L]50/Kd+[P]0/Kd+1) where [I]50 is the concentration of the free inhibitor at 50% inhibition, [L]50 is the concentration of the free labeled ligand at 50% inhibition, [P]0 is the concentration of the free protein at 0% inhibition, Kd represents the dissociation constant of the FITC peptide probe.

[2] = biological target: recombinant Mcl-1 (residues 172-327) (Homo sapiens (Human), UniProt Q07820); test: Bak peptide binding assay, fluorescence polarization anisotropy competition (FITC-Bak), Mcl-1; conditions: FITC-Bak peptide 10 nM, Mcl-1 14 nM;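 also: displacement of labeled Bak peptide read by fluorescence anisotropy, 10-point threefold dilutions from 20 µM top dose in 5% DMSO, 90 min incubation at room temperature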
recombinant Mcl-1 (residues 172-327), sequence (Q07820 172-327): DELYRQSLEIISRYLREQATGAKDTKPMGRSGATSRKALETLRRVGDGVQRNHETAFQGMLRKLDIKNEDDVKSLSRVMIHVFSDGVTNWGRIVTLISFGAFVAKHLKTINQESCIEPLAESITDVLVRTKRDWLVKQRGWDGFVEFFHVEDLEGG
Method: Compound affinity was measured using a fluorescence polarization anisotropy competition assay. Anisotropy measurements were carried out in 384-well, black, flat-bottom plates (Greiner Bio-one, Monroe, N.C., USA). […] 10 nM FITC-Bak peptide and 14 nM recombinant Mcl-1 (residues 172-327) were added to assay buffer (3 mM dithiothreitol, 50 mM NaCl, 20 mM Tris, pH 7.5).

K562 [3] = test: Cellular viability assay, CellTiter-Glo, K562; type: cell-based; conditions: Homo sapiens, Table 6 viability assay (method: reduced serum, 1% FBS)
Method: (§4) Cellular Viability of a Human Tumor Cell Lines
(§5) Human cancer cell lines NCI-H23, K562, NCI-H929, and MV-4-11 were cultured in media supplemented with 10% fetal bovine serum (FBS). To evaluate compound effect on cellular proliferation, cells were plated at 1,000 cells/well in 96-well tissue culture plates in a total volume of 90 uL medium supplemented with 10% FBS (Sigma, Saint Louis, Mo.). 24 hours later, 10 uL of compound (in a 2-fold serial dilution) is added to the cells for a top concentration of 50 uM and a final DMSO concentration <1%. After 72 hours, cell number was measured using the CellTiter-Glo Luminescent assay according to manufacturer's recommendations (Promega, Madison, Wis.). A viability assay in reduced serum was also conducted. Cells were plated at 5,000 cells/well in 96-well plates in a total volume of 100 uL medium supplemented with 10% FBS (Sigma, Saint Louis, Mo.). 24 hours later, the medium was replaced with 90 uL medium containing 1% FBS and the assay conducted as described. EC50 values were determined by plotting growth against compound concentration in a 4-parameter logisitic model in XLFit.

NCI-H23 [4] = test: Cellular viability assay, CellTiter-Glo, NCI-H23; type: cell-based; conditions: Homo sapiens, Table 6 viability assay (method: reduced serum, 1% FBS)
Method: as §4, §5

MV-4-11 [5] = test: Cellular proliferation, CellTiter-Glo, MV-4-11; type: cell-based; conditions: Homo sapiens, MV4-11, 10% FBS, 72 hours, read-out: EC50 on cellular proliferation, NV-4-11
Method: as §4, §5

K562 [6] = test: Cellular proliferation, CellTiter-Glo, K562; type: cell-based; conditions: Homo sapiens, 10% FBS, 72 hours
Method: as §4, §5

NCI-H23 [7] = test: Cellular proliferation, CellTiter-Glo, NCI-H23; type: cell-based; conditions: Homo sapiens, 10% FBS, 72 hours
Method: as §4, §5

MV-4-11 [8] = test: Cellular viability assay, CellTiter-Glo, MV-4-11; type: cell-based; conditions: Homo sapiens, MV4-11, Table 6 viability assay (method: reduced serum, 1% FBS), read-out: EC50 on cellular viability, NV-4-11
Method: as §4, §5

[9] = biological target: Bcl-2 (residues 1-207 A96T,G110R, Δ35-91, replaced with Bcl-xL35-50) (Homo sapiens (Human), UniProt P10415, DEL35-91/INS34DVEENRTEAPEGTESE); test: Bak peptide binding assay, fluorescence polarization anisotropy competition (FITC-Bak), Bcl-2 selectivity; conditions: Table 4; FITC-Bak peptide 10 nM, Bcl-2 40 nM
Bcl-2 (residues 1-207 A96T,G110R, Δ35-91, replaced with Bcl-xL35-50), sequence (P10415 other isoform, or with tags, fused parts or gaps, stated change not applied): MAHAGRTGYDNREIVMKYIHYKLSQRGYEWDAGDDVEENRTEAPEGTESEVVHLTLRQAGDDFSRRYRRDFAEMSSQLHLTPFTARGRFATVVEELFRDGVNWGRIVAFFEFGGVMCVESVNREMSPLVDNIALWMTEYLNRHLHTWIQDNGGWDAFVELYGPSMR
Method: as §1, §2, §3

NCI-H929 = test: Cellular proliferation, CellTiter-Glo, NCI-H929; type: cell-based; conditions: Homo sapiens, 10% FBS, 72 hours
Method: as §4, §5

[10] = Table 3, binned ranges, read-out: Ki for inhibition of Mcl-1

Bcl-xL (residues 1-209, loop 45-86 deleted), sequence (Q07817 other isoform, or with tags, fused parts or gaps del 45-86): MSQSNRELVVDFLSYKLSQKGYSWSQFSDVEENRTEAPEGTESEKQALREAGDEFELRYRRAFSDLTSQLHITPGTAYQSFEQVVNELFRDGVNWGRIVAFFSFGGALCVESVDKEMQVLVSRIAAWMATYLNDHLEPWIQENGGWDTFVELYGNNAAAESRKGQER

Compound | Ki [1] [µM] | Ki [2, 10] [µM] | Ki ([2]; Table 4, read-out: Ki Mcl-1) [µM] | EC50 (K562 [6]) [µM] | further results
Cc1cc(OCCCc2cn(CCC(=O)NS(C)(=O)=O)c3cc(Cl)ccc23)cc(C)c1Cl [Example 20, 3-(6-chloro-3-(3-(4-chloro-3,5-dimethylphenoxy)propyl)-1H-indol-1-yl)-N-(methylsulfonyl)propanamide] | 10 | 0.101 to 0.299 | 0.36 |  | 
Cc1cc(OCCCc2c(C)n(CCC(=O)O)c3cc(Cl)ccc23)cc(C)c1Cl [Example 44, 3-(6-chloro-3-(3-(4-chloro-3,5-dimethylphenoxy)propyl)-2-methyl-1H-indol-1-yl)propanoic acid] | 7.9 | 0.101 to 0.299 | 0.17 |  | 
Cc1cc(OCCCc2c(C)n(CCC(=O)O)c3c(-c4ccnn4C)cccc23)cc(C)c1Cl [Example 70, 3-(3-(3-(4-chloro-3,5-dimethylphenoxy)propyl)-2-methyl-7-(1-methyl-1H-pyrazol-5-yl)-1H-indol-1-yl)propanoic acid] |  | ≤ 0.1 |  |  | EC50 (K562 [3]): 4.1 µM; EC50 (NCI-H23 [4]): 5.8 µM
Cc1ccncc1-c1cccc2c(CCCOc3cc(C)c(Cl)c(C)c3)c(C)n(CCC(=O)O)c12 [Example 71, 3-(3-(3-(4-chloro-3,5-dimethylphenoxy)propyl)-2-methyl-7-(4-methylpyridin-3-yl)-1H-indol-1-yl)propanoic acid] |  | ≤ 0.1 |  |  | EC50 (K562 [3]): 7 µM; EC50 (NCI-H23 [4]): 9.9 µM
Cc1cc(OCCCc2c(C)n(CCC(=O)O)c3c(-c4c(C)n[nH]c4C)cccc23)cc(C)c1Cl [Example 74, 3-(3-(3-(4-chloro-3,5-dimethylphenoxy)propyl)-7-(3,5-dimethyl-1H-pyrazol-4-yl)-2-methyl-1H-indol-1-yl)propanoic acid] |  | ≤ 0.1 |  | 21.2 | EC50 (MV-4-11 [5]): 11.5 µM; EC50 (K562 [3]): 2 µM; EC50 (NCI-H23 [7]): 19.8 µM; EC50 (NCI-H23 [4]): 5.4 µM
Cc1cc(OCCCc2c(C)n(CCC(=O)O)c3c(-c4c(C)nn(C)c4C)cccc23)cc(C)c1Cl [Example 76, 3-(3-(3-(4-chloro-3,5-dimethylphenoxy)propyl)-2-methyl-7-(1,3,5-trimethyl-1H-pyrazol-4-yl)-1H-indol-1-yl)propanoic acid] | 7.9 | ≤ 0.1 | 0.007 | 17.1 | EC50 (MV-4-11 [5]): 16.2 µM; EC50 (MV-4-11 [8]): 2.8 µM; Ki [9]: 7.1 µM
Cc1cc(OCCCc2c(C)n(CCC(=O)O)c3c(-c4c(C)nn(C(C)C)c4C)cccc23)cc(C)c1Cl [Example 78, 3-(3-(3-(4-chloro-3,5-dimethylphenoxy)propyl)-7-(1-isopropyl-3,5-dimethyl-1H-pyrazol-4-yl)-2-methyl-1H-indol-1-yl)propanoic acid] |  | ≤ 0.1 |  | 10 | EC50 (MV-4-11 [5]): 12.9 µM
Cc1cnccc1-c1cccc2c(CCCOc3cc(C)c(Cl)c(C)c3)c(C)n(CCC(=O)NS(C)(=O)=O)c12 [Example 83, 3-(3-(3-(4-chloro-3,5-dimethylphenoxy)propyl)-2-methyl-7-(3-methylpyridin-4-yl)-1H-indol-1-yl)-N-(methylsulfonyl)propanamide] |  | ≤ 0.1 |  |  | EC50 (MV-4-11 [8]): 1.9 µM
Cc1cc(OCCCc2c(C)n(Cc3ccc(C(=O)O)o3)c3c(-c4c(C)n[nH]c4C)cccc23)cc(C)c1Cl [Example 99, 5-((3-(3-(4-chloro-3,5-dimethylphenoxy)propyl)-7-(3,5-dimethyl-1H-pyrazol-4-yl)-2-methyl-1H-indol-1-yl)methyl)furan-2-carboxylic acid] | 9.3 | ≤ 0.1 | 0.011 |  | Ki [9]: 2.9 µM
Cc1cc(OCCCc2c(C)n(Cc3cccc(C(=O)O)c3)c3c(-c4c(C)n[nH]c4C)cccc23)cc(C)c1Cl [Example 100, 3-((3-(3-(4-chloro-3,5-dimethylphenoxy)propyl)-7-(3,5-dimethyl-1H-pyrazol-4-yl)-2-methyl-1H-indol-1-yl)methyl)benzoic acid] | 4.7 | ≤ 0.1 | 0.01 |  | Ki [9]: 1.2 µM
Cc1cc(OCCCc2c(C)n(CCC(=O)O)c3c(-c4c(C)nn(C)c4C)c(Cl)ccc23)cc(C)c1Cl [Example 104, 3-(6-chloro-3-(3-(4-chloro-3,5-dimethylphenoxy)propyl)-2-methyl-7-(1,3,5-trimethyl-1H-pyrazol-4-yl)-1H-indol-1-yl)propanoic acid] |  | ≤ 0.1 |  | 24.8 | EC50 (NCI-H929): 20 µM
Cc1cc(OCCCc2c(C(F)(F)F)n(Cc3ccc(CC(=O)O)cc3)c3c(-c4c(C)nn(C)c4C)cccc23)cc(C)c1Cl [Example 117, 2-(4-((3-(3-(4-chloro-3,5-dimethylphenoxy)propyl)-2-(trifluoromethyl)-7-(1,3,5-trimethyl-1H-pyrazol-4-yl)-1H-indol-1-yl)methyl)phenyl)acetic acid] |  | ≤ 0.1 |  | 14.8 | EC50 (NCI-H929): 8.8 µM
Cc1cc(OCCCc2c(C(F)(F)F)n(CCC(=O)O)c3ccccc23)cc(C)c1Cl [Example 135, 3-(3-(3-(4-chloro-3,5-dimethylphenoxy)propyl)-2-(trifluoromethyl)-1H-indol-1-yl)propanoic acid] |  | ≤ 0.1 |  |  | 
